Source: patent publication US20040234476A1, “Cosmetic preparation with anti-wrinkle action” (priority 2001, published 2004)
Where no end group is shown, it is not given here. The star is where a group is joined. Palmitoyl = CCCCCCCCCCCCCCCC(=O)*

System: cells
Experiment: in vitro studies of collagen and glycosaminoglycan synthesis by cells
Format: cell-based

Substance: palmitoyl-Lys-Thr-Thr-Lys-Ser (Palmitoyl-KTTKS) [lipopeptide]
- synthesis of collagen and glycosaminoglycans by cells: induces cells to synthesize collagen and glycosaminoglycans
